Experimental findings from patent US8609836B2, “4-aryl-2-anilino-pyrimidines” (Janssen Pharmaceutica NV, priority 2008, dated 2013) are described below.

Molecules are shown by their SMILES. Some results are limits rather than exact numbers.

The subject of one test is H1299. Put plainly: Cellular proliferation assay (Alamar blue), H1299. The test is classed as cell-based. The settings on record: Homo sapiens, NCI-H1299; 10% FCS; 72 hours with compound; Alamar blue 4 h. Put shortly:
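This proliferation assay on NCI-H1299 cells used an initial 24-hour compound-free incubation after seeding, followed by 72 hours of compound treatment with 10% FCS serum at 37° C. and 5% (v/v) CO2. Viable cells were quantified by a 4 h Alamar blue incubation and fluorescent plate reading at 544 nm/590 nm, and effects were expressed relative to control cells.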
A general note: Resazurin is reduced to fluorescent resorufin, in cell work by metabolically active cells.

Another test has as its target CDK4/CyclinD1 (h) (Homo sapiens, UniProt P11802). The test can be described thus: CDK4/CyclinD1 human kinase inhibition, SPA with GST-pRb substrate. The test is classed as biochemical. The following applies: read-out: CDK4 pIC50 (converted). In a few lines:
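Scintillation proximity format: after EDTA/Triton stop containing glutathione SPA beads, 33P incorporation was counted. The reaction ran 60 min at room temperature in Hepes pH 7.5 with NaF, MgCl2, DTT, using 2.5 μg/ml human CDK4/CyclinD1, 40 μg/ml GST-pRb substrate and 2 nM [γ-33P]ATP.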

The target in the next test is CDK1/CyclinB (h) (Homo sapiens, UniProt P06493). The test can be described thus: CDK1/CyclinB human kinase inhibition, Invitrogen's FRET assay (Z'lyte). It counts as biochemical. The following applies: read-out: CDK1 pIC50 (converted). Put shortly: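 Read-out is the 460 nm/538 nm emission ratio (390 nm excitation) after a 60 min protease development step. Before that, 10 μM ATP and 2 μM Z'lyte Ser/Thr peptide 12 react 60 min at room temperature with 0.2 μg/ml human CDK1/CyclinB in Hepes pH 7.5 containing MgCl2, EGTA and Brij-35.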
Sequence of CDK1/CyclinB (h) (P06493 whole entry): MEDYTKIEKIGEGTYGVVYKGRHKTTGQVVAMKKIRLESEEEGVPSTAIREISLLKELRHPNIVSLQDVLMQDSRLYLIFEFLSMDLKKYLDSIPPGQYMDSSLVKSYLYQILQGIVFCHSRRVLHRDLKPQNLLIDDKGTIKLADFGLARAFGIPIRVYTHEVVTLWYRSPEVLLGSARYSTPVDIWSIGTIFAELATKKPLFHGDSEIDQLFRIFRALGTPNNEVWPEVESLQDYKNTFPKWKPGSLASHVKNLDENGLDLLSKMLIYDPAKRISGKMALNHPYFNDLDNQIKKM
Sequence of CDK1/CyclinB (h) (P14635 whole entry partner): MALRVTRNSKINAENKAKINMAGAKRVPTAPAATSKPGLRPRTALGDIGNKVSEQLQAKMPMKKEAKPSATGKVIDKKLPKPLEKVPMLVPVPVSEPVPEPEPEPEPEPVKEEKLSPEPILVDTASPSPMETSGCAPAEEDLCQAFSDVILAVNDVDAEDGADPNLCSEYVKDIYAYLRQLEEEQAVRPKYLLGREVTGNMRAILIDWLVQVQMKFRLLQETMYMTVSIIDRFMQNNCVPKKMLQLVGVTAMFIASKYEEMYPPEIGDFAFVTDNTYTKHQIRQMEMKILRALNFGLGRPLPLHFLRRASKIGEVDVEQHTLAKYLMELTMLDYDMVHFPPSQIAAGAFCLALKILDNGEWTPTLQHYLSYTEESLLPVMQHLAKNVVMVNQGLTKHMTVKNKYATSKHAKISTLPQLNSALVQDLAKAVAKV

The target of the next test is PLK3 (h) (Homo sapiens, UniProt Q9H4B4). The test can be described thus: PLK3 human kinase inhibition, SPA. The test is classed as biochemical. The following applies: read-out: PLK3 pIC50 (converted). Put shortly:
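Radiometric scintillation proximity format at pH 8.0 (Hepes, MnCl2, DTT). The 2 μM biotin-peptide substrate is phosphorylated by PLK3 (h) (30 μg/ml) using 0.1 μM ATP traced with 33P, for 20 min at room temperature. EDTA stop; phosphopeptide captured on streptavidin beads and imaged.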

The target of a further test is PLK2 (h) (Homo sapiens, UniProt Q9NYY3). The test can be described thus: PLK2 human kinase inhibition, SPA. The test is classed as biochemical. The settings on record: read-out: PLK2 pIC50 (converted). Put shortly:
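33P incorporation into a biotinylated peptide (2 μM) was captured on streptavidin PVT beads and imaged on Leadseeker. Enzyme at 30 μg/ml, ATP 0.1 μM with 2 nM [γ-33P]ATP, Hepes pH 8.0 with MnCl2 and DTT. Incubation was 20 min at room temperature.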

The next test concerns the target AuroraB (h) (Homo sapiens, UniProt Q96GD4). The test can be described thus: Aurora-B human kinase inhibition, SPA. It counts as biochemical. The following applies: read-out: AuroraB pIC50 (converted). Put shortly:
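AuroraB (0.5 μg/ml) phosphorylates 3 μM biotin-peptide using 0.5 μM ATP spiked with 33P-ATP in Hepes pH 7.5 with 3 mM MgCl2 and MnCl2, for 60 min at room temperature. EDTA stop solution carries streptavidin scintillant beads, and the captured radiolabel is imaged.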

In another test the test system is HCT-116. The test can be described thus: Cellular proliferation assay (Alamar blue), HCT-116. It counts as cell-based. The settings on record: Homo sapiens, 10% FCS, 72 hours with compound, Alamar blue 4 h. Put shortly:
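Alamar blue fluorescence (544/590 nm) measured viable cells after 72 h compound exposure; dye incubation 4 h (HCT-116), 6 h (U87-MG) or 24 h (A2780, MDA-MB-231). Cells pre-seeded 24 h, grown in 10% FCS, 37° C, 5% CO2; effect expressed relative to control cells.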

For the next test, the target named is GSK3β (h) (Homo sapiens, UniProt P49841). The test can be described thus: GSK-3β human kinase inhibition, SPA. The settings on record: read-out: GSK3b pIC50 (converted). It counts as biochemical. Put shortly:
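Radiometric: 33P-labelled peptide captured on streptavidin SPA beads after EDTA stop and imaged on Leadseeker. Reaction ran 1 h at RT, 1 μM cold ATP with 2 nM [γ-33P]ATP, 1 μM biotin-peptide substrate, human GSK3β 1 μg/ml, pH 7.4 Tris buffer.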

Sequence of GSK3β (h) (P49841 whole entry): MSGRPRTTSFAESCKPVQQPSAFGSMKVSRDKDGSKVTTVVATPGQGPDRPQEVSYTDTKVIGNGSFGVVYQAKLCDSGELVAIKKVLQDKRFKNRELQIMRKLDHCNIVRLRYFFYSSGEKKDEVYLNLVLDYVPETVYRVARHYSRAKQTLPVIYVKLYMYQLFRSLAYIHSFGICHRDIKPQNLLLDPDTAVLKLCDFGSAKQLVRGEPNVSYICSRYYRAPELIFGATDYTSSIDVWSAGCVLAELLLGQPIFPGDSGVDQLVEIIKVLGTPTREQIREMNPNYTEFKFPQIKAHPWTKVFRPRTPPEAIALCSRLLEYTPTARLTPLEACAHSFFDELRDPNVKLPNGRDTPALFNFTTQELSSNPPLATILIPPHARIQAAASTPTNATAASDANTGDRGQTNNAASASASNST
Sequence of PLK3 (h) (Q9H4B4 whole entry): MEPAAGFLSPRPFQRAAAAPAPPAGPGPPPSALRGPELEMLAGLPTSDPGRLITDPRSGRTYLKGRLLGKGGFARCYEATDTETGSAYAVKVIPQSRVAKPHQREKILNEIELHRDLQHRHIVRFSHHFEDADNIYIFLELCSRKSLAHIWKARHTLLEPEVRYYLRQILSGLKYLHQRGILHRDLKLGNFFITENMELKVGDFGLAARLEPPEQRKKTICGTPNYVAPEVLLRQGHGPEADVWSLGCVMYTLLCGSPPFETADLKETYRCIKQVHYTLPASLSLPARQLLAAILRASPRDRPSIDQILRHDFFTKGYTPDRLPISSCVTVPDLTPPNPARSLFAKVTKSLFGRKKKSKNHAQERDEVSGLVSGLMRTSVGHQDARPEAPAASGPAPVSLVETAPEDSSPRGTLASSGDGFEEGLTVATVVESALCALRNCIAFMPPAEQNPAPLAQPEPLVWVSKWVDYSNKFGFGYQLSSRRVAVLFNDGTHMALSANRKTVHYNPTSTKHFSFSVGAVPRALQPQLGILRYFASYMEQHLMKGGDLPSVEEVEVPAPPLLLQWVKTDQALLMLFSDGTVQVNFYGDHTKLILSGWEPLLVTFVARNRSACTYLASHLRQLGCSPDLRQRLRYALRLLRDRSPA
Sequence of CDK4/CyclinD1 (h) (P11802 whole entry): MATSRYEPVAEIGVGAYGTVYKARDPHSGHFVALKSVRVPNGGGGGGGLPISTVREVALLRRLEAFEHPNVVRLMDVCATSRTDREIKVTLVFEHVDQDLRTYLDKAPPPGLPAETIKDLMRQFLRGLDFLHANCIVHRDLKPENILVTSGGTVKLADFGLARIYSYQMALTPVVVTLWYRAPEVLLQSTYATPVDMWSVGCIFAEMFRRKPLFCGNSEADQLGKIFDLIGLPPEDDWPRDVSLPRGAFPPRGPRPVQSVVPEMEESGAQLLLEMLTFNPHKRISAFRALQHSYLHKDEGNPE
Sequence of CDK4/CyclinD1 (h) (P24385 whole entry partner): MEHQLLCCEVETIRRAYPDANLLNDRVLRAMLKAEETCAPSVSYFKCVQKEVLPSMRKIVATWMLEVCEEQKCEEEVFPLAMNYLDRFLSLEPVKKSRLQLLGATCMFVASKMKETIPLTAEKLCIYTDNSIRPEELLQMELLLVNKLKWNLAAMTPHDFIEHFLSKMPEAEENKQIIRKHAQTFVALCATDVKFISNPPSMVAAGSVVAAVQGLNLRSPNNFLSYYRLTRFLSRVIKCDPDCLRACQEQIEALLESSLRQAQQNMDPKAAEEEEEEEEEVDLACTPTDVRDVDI
Sequence of AuroraB (h) (Q96GD4 whole entry): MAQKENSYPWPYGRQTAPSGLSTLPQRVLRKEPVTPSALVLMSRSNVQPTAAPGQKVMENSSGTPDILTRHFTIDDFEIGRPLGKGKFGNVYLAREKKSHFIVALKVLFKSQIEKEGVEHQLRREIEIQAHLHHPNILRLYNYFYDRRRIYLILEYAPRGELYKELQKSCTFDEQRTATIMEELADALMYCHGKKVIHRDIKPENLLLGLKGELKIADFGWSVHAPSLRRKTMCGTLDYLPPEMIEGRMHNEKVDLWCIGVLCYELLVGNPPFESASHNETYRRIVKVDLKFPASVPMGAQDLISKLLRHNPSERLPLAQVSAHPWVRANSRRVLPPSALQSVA
Sequence of PLK2 (h) (Q9NYY3 whole entry): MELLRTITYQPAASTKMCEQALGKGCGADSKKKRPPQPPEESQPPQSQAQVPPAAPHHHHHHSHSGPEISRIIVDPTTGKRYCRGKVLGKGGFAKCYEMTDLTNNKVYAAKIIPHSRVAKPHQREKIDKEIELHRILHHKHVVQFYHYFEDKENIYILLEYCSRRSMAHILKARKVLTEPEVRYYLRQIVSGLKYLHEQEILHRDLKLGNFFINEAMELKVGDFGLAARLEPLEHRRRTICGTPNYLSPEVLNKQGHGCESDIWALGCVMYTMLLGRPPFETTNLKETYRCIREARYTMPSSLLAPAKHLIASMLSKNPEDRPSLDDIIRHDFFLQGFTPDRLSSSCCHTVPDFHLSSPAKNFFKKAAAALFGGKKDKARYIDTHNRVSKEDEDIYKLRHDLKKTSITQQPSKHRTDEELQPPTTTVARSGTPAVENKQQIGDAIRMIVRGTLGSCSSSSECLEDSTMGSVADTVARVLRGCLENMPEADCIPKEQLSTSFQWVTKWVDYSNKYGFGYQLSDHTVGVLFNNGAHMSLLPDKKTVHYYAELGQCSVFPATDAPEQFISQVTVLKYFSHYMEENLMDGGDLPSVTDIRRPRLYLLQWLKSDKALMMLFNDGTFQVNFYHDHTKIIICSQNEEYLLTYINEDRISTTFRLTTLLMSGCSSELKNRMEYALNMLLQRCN

Regarding `CN(C)Cc1cc2cc(c1)Nc1nccc(n1)-c1cccc(c1)CNC(=O)[C@@H]1CCCN1C2` [Compound 30], the IC50 with H1299 is 0.191 µM; on CDK4/CyclinD1 (h), 0.891 µM; at CDK1/CyclinB (h), 0.269 µM; on PLK3 (h), more than 10 µM; on PLK2 (h) it was more than 10 µM; on AuroraB (h), more than 10 µM. The IC50 was 0.107 µM in the test with HCT-116 and 0.024 µM on GSK3β (h).

With `COc1ccc2cc1CN(C)CCNC(=O)C1CCN(CC1)Cc1cc(cc(N3CCOCC3)c1)Nc1nccc-2n1` [Compound 77], the IC50 in the test on H1299, at CDK4/CyclinD1 (h), on CDK1/CyclinB (h), on PLK3 (h), at PLK2 (h) and on AuroraB (h) was more than 10 µM each time. Also, the IC50 was more than 10 µM in the test with HCT-116 and 3.8 µM at GSK3β (h).

As to `CN1CCCNC(=O)[C@H](CO)NCc2cc(cc(N3CCOCC3)c2)Nc2nccc(n2)-c2ccc(cc2)C1` [Compound 10], the IC50 is more than 10 µM in the test with H1299; more than 10 µM at CDK4/CyclinD1 (h); more than 10 µM on CDK1/CyclinB (h); more than 10 µM at PLK3 (h); more than 10 µM at PLK2 (h); 9.33 µM on AuroraB (h). Besides, the IC50 is more than 10 µM in the test with HCT-116 and approximately 10 µM at GSK3β (h).

On to `O=C1NCCCOc2cccc(c2)-c2ccnc(n2)Nc2ccc(N3CCOCC3)c(c2)CN[C@H]1CO` [Compound 89], for which the IC50 with H1299 was more than 10 µM; on CDK4/CyclinD1 (h) it was 3.63 µM; on CDK1/CyclinB (h), more than 10 µM; at PLK3 (h) it was more than 10 µM; on PLK2 (h), more than 10 µM; at AuroraB (h), more than 10 µM. The IC50 in the test on HCT-116 was 4.37 µM; at GSK3β (h), 0.589 µM.

Turning to `O=C1NCCCOc2ccc(cc2)-c2ccnc(n2)Nc2ccc(N3CCOCC3)c(c2)CN2CCC1CC2` [Compound 92], the IC50 in the test on H1299 is 0.832 µM; on CDK4/CyclinD1 (h), 0.891 µM; at CDK1/CyclinB (h), 1.02 µM; on PLK3 (h), more than 10 µM; on PLK2 (h) it was more than 10 µM; at AuroraB (h), more than 10 µM. The values for the IC50 with HCT-116 and on GSK3β (h) were 0.309 µM and 1.32 µM, respectively.

As for `COc1ccc2cc1CN(C)CCCNC(=O)[C@@H]1CCCN1Cc1cc(cc(NC(C)C)c1)Nc1nccc-2n1` [Compound 164], the IC50 in the test with H1299, on CDK4/CyclinD1 (h), at CDK1/CyclinB (h), on PLK3 (h), on PLK2 (h) and on AuroraB (h) was more than 10 µM in each case. In addition, the IC50 with HCT-116 and on GSK3β (h) was more than 10 µM throughout.

On to `CN(C)C(=O)c1ccc2cc1CN1CCC[C@H]1C(=O)NCc1cccc(c1)-c1ccnc(n1)N2` [Compound 24], for which the IC50 in the test with H1299 was more than 10 µM; on CDK4/CyclinD1 (h) it was 4.27 µM; on CDK1/CyclinB (h), more than 10 µM; at PLK3 (h), more than 10 µM; at PLK2 (h) it was more than 10 µM; at AuroraB (h), more than 10 µM. Moreover, the IC50 in the test with HCT-116 was 3.8 µM; on GSK3β (h) it was 0.0871 µM.

Consider `COc1ccc2cc1CN1CCN(CC1)CC(=O)N(C)CCN(C)c1ccc(cn1)-c1ccnc(n1)N2` [Compound 14], for which the IC50 was more than 10 µM in the test with H1299; more than 10 µM at CDK4/CyclinD1 (h); more than 3.02 µM on CDK1/CyclinB (h); more than 10 µM on PLK3 (h); more than 10 µM at PLK2 (h); more than 10 µM on AuroraB (h). Also, the IC50 with HCT-116 was 5.89 µM; on GSK3β (h), 4.9 µM.

On to `O=C1NCCNc2cc(ccn2)-c2ccnc(n2)Nc2ccc(N3CCOCC3)c(c2)CN2CCC1CC2` [Compound 84], for which the IC50 is more than 10 µM in the test with H1299; 7.24 µM on CDK4/CyclinD1 (h); more than 10 µM on CDK1/CyclinB (h); more than 10 µM at PLK3 (h); more than 10 µM at PLK2 (h); 7.08 µM on AuroraB (h). Further, the IC50 was more than 10 µM in the test with HCT-116 and 1.55 µM at GSK3β (h).

As to `O=C1NCCCNCc2ccc(cc2)-c2ccnc(n2)Nc2ccc(N3CCOCC3)c(c2)CN2C[C@H](O)C[C@@H]12` [Compound 169], the IC50 with H1299, on CDK4/CyclinD1 (h), on CDK1/CyclinB (h), on PLK3 (h), at PLK2 (h) and on AuroraB (h) was more than 10 µM each time. The IC50 in the test on HCT-116 and at GSK3β (h) was more than 10 µM in each case.

`CN1CCNC(=O)C2CCN(CC2)Cc2cccc(c2)Nc2nccc(n2)-c2ccc(cc2)C1` [Compound 82]: the IC50 in the test with H1299, on CDK4/CyclinD1 (h), at CDK1/CyclinB (h), at PLK3 (h), on PLK2 (h) and on AuroraB (h) was more than 10 µM throughout. Besides, the IC50 with HCT-116 and on GSK3β (h) was more than 10 µM each time.

With `CN1CCCNC(=O)[C@@H]2CCCN2Cc2cccc(c2)Nc2nccc(n2)-c2ccc(cc2)C1` [Compound 173], the IC50 in the test with H1299, at CDK4/CyclinD1 (h), on CDK1/CyclinB (h), at PLK3 (h), at PLK2 (h) and on AuroraB (h) was more than 10 µM throughout. In addition, the IC50 with HCT-116 and on GSK3β (h) was more than 10 µM in each case.

As to `O=C1NCCOc2ccc(cc2)-c2ccnc(n2)Nc2ccc(N3CCOCC3)c(c2)CN2CCC1CC2` [Compound 6], the IC50 in the test on H1299 is 0.38 µM; at CDK4/CyclinD1 (h), 0.562 µM; on CDK1/CyclinB (h), 0.195 µM; on PLK3 (h), more than 10 µM; at PLK2 (h), more than 10 µM; on AuroraB (h) it was 1.66 µM. Besides, the IC50 was 0.105 µM in the test on HCT-116 and 0.741 µM on GSK3β (h).

For `COc1ccc2cc1CN(C)CCNC(=O)CN1CCN(CC1)Cc1cc(cc(NC(C)C)c1)Nc1nccc-2n1` [Compound 142], the IC50 is more than 10 µM in the test with H1299; more than 10 µM on CDK4/CyclinD1 (h); 8.51 µM on CDK1/CyclinB (h); more than 10 µM at PLK3 (h); more than 10 µM on PLK2 (h); more than 10 µM at AuroraB (h). The IC50 in the test with HCT-116 and on GSK3β (h) was more than 10 µM in each case.

On to `CN1CCCNC(=O)[C@H](CO)NCc2cccc(c2)Nc2nccc(n2)-c2ccc(cc2)C1` [Compound 113], for which the IC50 in the test on H1299, at CDK4/CyclinD1 (h), at CDK1/CyclinB (h), on PLK3 (h), on PLK2 (h) and on AuroraB (h) was more than 10 µM throughout. Further, the IC50 in the test with HCT-116 and on GSK3β (h) was more than 10 µM throughout.

Consider `COc1ccc2cc1CN(C)CCCNC(=O)CN1CCN(CC1)Cc1cc(cc(N3CCOCC3)c1)Nc1nccc-2n1` [Compound 141], for which the IC50 with H1299, on CDK4/CyclinD1 (h), on CDK1/CyclinB (h), at PLK3 (h), at PLK2 (h) and on AuroraB (h) was more than 10 µM in each case. The IC50 in the test on HCT-116 is 2.29 µM; at GSK3β (h), more than 10 µM.

For the compound `C[C@@H]1NCc2cc(ccc2N2CCOCC2)Nc2nccc(n2)-c2ccc(cc2)OCCCNC1=O` [Compound 5], the IC50 was more than 10 µM in the test with H1299; 1.29 µM at CDK4/CyclinD1 (h); more than 10 µM at CDK1/CyclinB (h); more than 10 µM on PLK3 (h); more than 10 µM on PLK2 (h); more than 10 µM at AuroraB (h). Moreover, the IC50 in the test on HCT-116 was 1.74 µM; on GSK3β (h), 0.135 µM.

With `COc1ccc2cc1CN(C)CCCNC(=O)CN1CCN(CC1)Cc1cc(cc(NC(C)C)c1)Nc1nccc-2n1` [Compound 130], the IC50 in the test on H1299 was more than 10 µM; at CDK4/CyclinD1 (h), more than 10 µM; at CDK1/CyclinB (h) it was 7.76 µM; on PLK3 (h), more than 10 µM; on PLK2 (h) it was more than 10 µM; at AuroraB (h), 6.31 µM. Moreover, the IC50 is more than 10 µM with HCT-116 and 5.37 µM at GSK3β (h).
